According to US20240068023A1 (The Trustees of Indiana University, priority 2021, published 2024):
“Also recorded” adds a separate entry of the source. Like-named read-outs stand apart in the source and are kept apart here.

Assays:
[1] = equations 7, 10; decrease
Excerpt: Oral doses were either given as a tablet or a suspension depending on the patient's convenience. […] The time schedule was later modified to collect more samples through the 1st and 3rd inter-dose interval without samples through the 2n d interdose interval. This was done to aid in the optimal spread of the collected concentration time-points and improvement of estimation of absorption parameters of the oral doses. Some of the samples collected in a parallel study were also used whenever available with the consent of the patient to aid with the better estimation of the terminal elimination phase.
The first-order conditional estimation method with η-ε interaction (FOCE-I) was used throughout the model building process. The dose of the drug, concentrations of the drug and the metabolite were converted to their molar counterparts to aid in the accurate estimation of the pharmacokinetic parameters. Perl-Speaks-NONMEM v.4.9.0, R v.4.0.4 (R Foundation for Statistical Computing) with the Xpose4 package v.4.6.0, RStudio v1.4 and Pirana v.2.9.9 were used for data exploration, visualization, diagnostics and automation. Measured plasma concentrations that were below the LLOQ were dealt with using the M1 method (discarding concentrations below the LLOQ and estimate the PK parameters using the remaining concentrations). […] Model assessment was based on successful minimization, OFV, the proper running of the covariance step, relative standard error of the parameter estimates, the goodness of fit plots and eta-shrinkage. Model validation was done using visual predictive checks and a bootstrapping procedure. The predictive performance of the models was evaluated using prediction corrected visual predictive checks (n=1000). The robustness of the final parameter estimates and the stability of the final model were validated using bootstrapping by generating 1000 resampled datasets with replacement.
The model building process was done in a step-wise process. Multiple disposition models (one-, two- and three-compartment) were evaluated. Absorption models with various absorption parameters (first order absorption with and without lag, transit compartment models) were tried. Bioavailability was estimated as each patient had both intravenous and oral dose data. […] Vf was fixed to 1 in the model due to unidentifiability of the metabolite parameters as there were no urine data available for either the drug or the metabolite. CLF is the fraction of CL, the total clearance of the drug that contributes to CL2, the clearance towards the formation of the metabolite. […]
The demographic covariates checked were biological gender, body weight, fat free mass, BMI and race. […] AAG was measured at every time-point the concentrations were measured and were therefore used as a time-varying covariate in the model. […]

[2] = Plasma R-, S- and total methadone concentrations after multiple small perioperative methadone doses (Example 1); settings: human, in vivo, 0.1 mg/kg/dose
[3] = system: adolescents undergoing PSF that received methadone; test: Preliminary pharmacogenetic associations in 50 PSF adolescents that received methadone; format: in vivo, human
Excerpt: OPRM1 rs1799971 is also associated with susceptibility to dependence.

[4] = cited from earlier work
[5] = system: children undergoing PE and PSF surgeries; test: CYP2B6 genetic associations with methadone-induced PONV and pain scores (Example 3); format: in vivo, human
Excerpt: This Example is a prospective, genotype-blinded, clinical observational study of children undergoing Nuss bar repair for pectus excavatum (PE) and posterior spinal fusion (PSF) repair for idiopathic scoliosis that received multidose methadone-based multimodal analgesia, performed in a tertiary care pediatric hospital.
Multimodal analgesia protocols as illustrated in TABLE 1 set forth above in Example 1 were followed for all the participants undergoing the surgeries.
The primary clinical outcome measured was PONV. The secondary outcome measured was maximum postoperative pain scores. Episodes of PONV were recorded as a binary outcome from nursing reports on electronic health records. Analgesic efficacy was described in terms of patient self-reported pain scores. Pain scores were collected every 2 to 4 h using a self-reported numeric rating scale ranging from 0 to 10.
Analyses were performed using the dominant, additive or recessive models to explore for possible associations. Associations were tested using ‘A’ as the referent allele and ‘a’ as the alternative allele under dominant model (i.e. AA vs. Aa/aa), additive model (i.e. AA vs. Aa vs. aa) and recessive model (i.e. AA/Aa vs. aa). Linear regression was used to investigate SNP associations for pain score. Poisson regression was used to investigate SNP associations for PONV. Unadjusted as well as covariate-adjusted analyses, adjusted for weight, race, age, surgery type and sex were performed. For primary outcome, PONV, the SNP's rate ratios (i.e. exponential of the slope parameter in the Poisson regression), p-values and 95% Cis were computed. For postoperative pain score, the SNPs' effect (i.e. the slope parameter in the linear regression model), p-values, and 95% confidence intervals (CIs) were computed.
Because eight SNPs were used for the final analysis, a Bonferroni correction was used for multiple comparisons for the primary outcome measure, which yielded a significance threshold of p=0.00625 [p=0.05/8 SNPs)].

AAG = settings: plasma; cited from earlier work
[6] = system: children undergoing PE and PSF surgeries; test: Postoperative opioid use, pain scores, FDI and hospital stay with multidose methadone-based multimodal analgesia (Example 1); format: in vivo, human; settings: for postoperative opioid use (morphine equivalents): current Example
[7] = system: adolescents undergoing PSF; settings: cited from earlier work; for postoperative opioid use (morphine equivalents): another adolescent PSF study, single larger intraoperative methadone dose; for mean morphine equivalent dose 0-72 hour: historical cohort
[8] = system: children undergoing PE and PSF surgeries; test: Regression of clinical outcomes on pharmacokinetic measures (Example 1, Table 3); settings: logistic regression; CI in next column
[9] = system: children undergoing PE and PSF surgeries; test: Safety of multidose perioperative methadone: respiratory depression, PONV, QTc (Example 1)
[10] = postoperative day 1, median (IQR)
[11] = postoperative day 2, median (IQR)
[12] = postoperative day 3, median (IQR)
[13] = postoperative day 4, median (IQR)
[14] = postoperative day 5, median (IQR)

SMILES: CCC(=O)C(C[C@H](C)N(C)C)(c1ccccc1)c1ccccc1 [S-methadone]
- fractional change of V2 per active allele rs17650 (ORM1) [1]: 0.526
- proportional change of V2 per unit AAG conc from 94.76 [1]: 0.00192

SMILES: CCC(=O)C(CC(C)N(C)C)(c1ccccc1)c1ccccc1 (racemic) [methadone]
- Cmax [2]: 24.7 ng/mL
- average in-hospital opioid use ([3]; OPRM1 rs1799971 AA genotype): 33.2 ± 8.0 mg
- average in-hospital opioid use ([3]; OPRM1 rs1799971 GG and GA genotype): 40.1 ± 6.1 mg
- hospital stay ([3]; adolescents other than FAAH rs3766246 wild type): 2.6 ± 0.8 days
- lower in-hospital opioid use, homologous/heterologous variants of FAAH rs3766246 and rs4141964 ([3]; compared with the wild type): 15-20%
- higher average in-hospital opioid use, OPRM1 rs1799971 GG and GA vs AA genotype ([3]; in vivo): 20%
- longer hospital stay, wild type of FAAH rs3766246 ([3]; than others): 1 days
- contribution of CYP3A4 to the metabolism of the drug ([4]; in vivo): more than 50%
- parent drug eliminated in urine ([4]; in vivo): 10-20%
- inter-individual variation in blood levels after methadone administration ([4]; up to): ≤ 17 fold
- Morphine equivalent - Fusion ([5]; mean): 0.6 mg/kg
- Morphine equivalent - Pectus ([5]; mean): 0.7 mg/kg
- Length of hospital stay ([5]; mean, 53 children): 2.7 days
- Beta, patient reported pain scores ([5]; rs4803419, Recessive model TT vs CC/TT (so in the source), Covariate adjusted analysis): −1.70
- Beta, patient reported pain scores ([5]; rs4803419, Recessive model TT vs CC/TT (so in the source), Unadjusted analysis): −1.78
- Beta, patient reported pain scores ([5]; rs10500282, Additive Model CC vs TT, Covariate adjusted analysis): −2.61
- Beta, patient reported pain scores ([5]; rs10500282, Additive Model CC vs TT, Unadjusted analysis): −2.00
- Beta, patient reported pain scores ([5]; rs10500282, Additive Model TC vs TT, Covariate adjusted analysis): 1.31
- Beta, patient reported pain scores ([5]; rs10500282, Additive Model TC vs TT, Unadjusted analysis): 1.33
- Beta, patient reported pain scores ([5]; rs10500282, Dominant model TC/CC vs TT, Covariate adjusted analysis): 1.18
- Beta, patient reported pain scores ([5]; rs10500282, Dominant model TC/CC vs TT, Unadjusted analysis): 1.16
- Beta, patient reported pain scores ([5]; rs11882424, Additive Model TC vs TT, Covariate adjusted analysis): 2.12
- Beta, patient reported pain scores ([5]; rs11882424, Additive Model TC vs TT, Unadjusted analysis): 2.19
- Beta, patient reported pain scores ([5]; rs11882424, Dominant model TC/CC vs TT, Covariate adjusted analysis): 2.12
- Beta, patient reported pain scores ([5]; rs11882424, Dominant model TC/CC vs TT, Unadjusted analysis): 2.19
- bound to AAG (AAG): 80-90%
- mean morphine equivalent, multi-dose methadone regimen ([6]; 0-72 hour, standard deviation 28.4): 113.25
- median FDI score ([6]; 3 months postoperatively, median (IQR)): 4 (0-9.5)
- median FDI score ([6]; 6 months postoperatively, median (IQR)): 2 (0-4)
- median FDI score ([6]; 12 months postoperatively, median (IQR)): 0 (0-3.5)
- Average pain scores during the entire in-hospital stay ([6]; PE): 3.60
- median hospital stay ([6]; PE): 4 days
- Average pain scores during the entire in-hospital stay ([6]; PSF): 3.95
- median hospital stay ([6]; PSF): 3 days
- median total opioid usage ([6]; following PE): 2.6 mg/kg
- median total opioid usage ([6]; following PSF): 2.1 mg/kg
- Average morphine equivalent dose ([6]; median (IQR)): 0.66 (0.59-0.74) mg/kg/day
- median usage of the common rescue opioids ([6]; not different between the surgeries): 0.03 mg/kg morphine equivalents
- Average pain score ([6]; numeric rating scale 0 to 10, median (IQR)): 3.53 (2.73-4.80)
- postoperative opioid use (morphine equivalents) ([6]; postoperative day 1): 0.6 mg/kg
- Pain scores [6, 10]: 3.5 (2.3-5.1)
- morphine equivalent units, including methadone doses [6, 10]: 0.61 (0.56-0.65) MEU/kg
- postoperative opioid use (morphine equivalents) ([6]; postoperative day 2): 0.88 mg/kg
- Pain scores [6, 11]: 3.4 (2.9-4.6)
- morphine equivalent units, including methadone doses [6, 11]: 0.88 (0.68-1.06) MEU/kg
- postoperative opioid use (morphine equivalents) ([6]; postoperative day 3): 0.64 mg/kg
- Pain scores [6, 12]: 3.7 (2.0-5.2)
- morphine equivalent units, including methadone doses [6, 12]: 0.58 (0.37-0.85) MEU/kg
- Pain scores [6, 13]: 3.8 (2.7-5.0)
- morphine equivalent units, including methadone doses [6, 13]: 0.42 (0.35-0.58) MEU/kg
- Pain scores [6, 14]: 3.7 (3.3-4.4)
- morphine equivalent units, including methadone doses [6, 14]: 0.59 (0.21-0.67) MEU/kg
- mean morphine equivalent dose in the first 72 postoperative hours ([6]; printed as mean (95% CI: 98.5-131.8)): 120.2 mg
- opioid use reduction ([6]; vs historical PCA opioids without intraoperative methadone, first 72 postoperative hours): 58.67%
- opioid use reduction ([6]; vs historical single intraoperative methadone of 0.1 mg/kg): 59.12%
- opioid use reduction ([6]; vs historical single intraoperative methadone of 0.2 mg/kg): 47.81%
- opioid use reduction ([6]; vs historical single intraoperative methadone of 0.3 mg/kg): 48.76%
- incidence of postoperative respiratory depression ([7]; 7 out of 31 receiving intraoperative methadone, first 48 hours): 22.6%
- postoperative opioid use (morphine equivalents) ([7]; postoperative day 1): 0.54 mg/kg
- postoperative opioid use (morphine equivalents) ([7]; postoperative day 2): 1.08 mg/kg
- postoperative opioid use (morphine equivalents) ([7]; postoperative day 3): 1.29 mg/kg
- mean morphine equivalent dose 0-72 hour ([7]; single intraoperative methadone 0.3 mg/kg): 221
- mean morphine equivalent dose 0-72 hour ([7]; single intraoperative methadone of 0.1 mg/kg): 277 mg
- PONV incidence in other studies ([7]; in vivo): 33-38%
- incidence of respiratory depression ([7]; large observational study, intraoperative methadone of 0.14 mg/kg and postoperative opioids): 37%
- OR, Nausea/Vomiting vs Methadone dose per kg per day [8]: 3.1e3
- episodes of PONV ([9]; 38 children): 18
- respiratory depression observed ([9]; 38 children receiving multiple dose of methadone): 0%
- respiratory depression (in words) ([9]; 38 children, 95% Wilson binomial confidence [0, 0.09]): No child in this Example had respiratory depression; also recorded: no patient had respiratory depression
- Postoperative QTc ([9]; median (IQR), Bazett's formula): 431 (414-440) ms
- postoperative QTc longer than preoperative QTc interval ([9]; median, IQR -10, 28): 9 ms
- patients with PONV ([9]; of 38 children): 12

SMILES: CCC(=O)C(C[C@@H](C)N(C)C)(c1ccccc1)c1ccccc1 [R-methadone]
- fractional change of V2 per active allele rs17650 (ORM1) [1]: 0.443
- proportional change of V2 per unit AAG conc from 94.76 [1]: 0.00291
